Results reported in patent US20120270819A1, “USE OF COMPOUNDS WITH SGLT-1/SGLT-2 INHIBITOR ACTIVITY FOR PRODUCING MEDICAMENTS FOR TREATMENT OF BONE DISEASE” (SANOFI, priority 2009, published 2012).

Tested on: female Sprague-Dawley mature and young adult rats
Assay: Ex vivo pQCT of L3 and L4 lumbar vertebrae
Type: in vivo, rat
Details: L3 + L4 vertebral bodies; for pQCT Total Area / pQCT Total BMC / pQCT Total BMD / pQCT Trabecular Area / pQCT Trabecular BMC / pQCT Trabecular BMD: mean
Protocol: Peripheral QCT scans were performed ex vivo using an XCT Research SA or SA+ bone scanner with software version 5.50D. Scans were obtained for the right femur, L3 and L4 lumbar vertebra for all animals euthanized at the end of the treatment period as well as two found dead animals. These two animals were scanned twice due to technical oversight, however only the first scans obtained were reported and the second scans were kept with the study file, this had no impact on the study as both scans were considered equivalent.
For the vertebrae, the scans were obtained at the midpoint. The L3 vertebrae from four animal and L4 vertebrae from four animals were damaged at trimming and L4 vertebrae from one animal was lost during trimming, consequently, no scans were obtained on these vertebrae. Additional slices were obtained as considered appropriate to ensure the optimal scans and data acquisition.
All analyses were performed using the LOOP option of the analysis software. All other data generated as a result of the LOOP option were retained with the raw data but not reported. The most appropriate analysis mode for the femur and the lumbar vertebrae was used and documented in the raw data and the analysis details are presented in Table 6. All scan analysis data was retained and re-analyses documented.

COc1ccc(Cc2c(OC3OC(CO)C(F)C(O)C3O)n[nH]c2C(F)(F)F)cc1 (stereo not drawn) [Example 5 of formula II]
pQCT Total Area, percent difference from Vehicle Control (mature adults, 10 mg/kg/day): 2.3%
pQCT Total BMC, percent difference from Vehicle Control (mature adults, 10 mg/kg/day): 5.9%
pQCT Total BMD, percent difference from Vehicle Control (mature adults, 10 mg/kg/day): 3.6%
pQCT Trabecular Area, percent difference from Vehicle Control (mature adults, 10 mg/kg/day): 2.4%
pQCT Trabecular BMC, percent difference from Vehicle Control (mature adults, 10 mg/kg/day): 9.0%
pQCT Trabecular BMD, percent difference from Vehicle Control (mature adults, 10 mg/kg/day): 6.9%
pQCT Total Area (mature adults, 10 mg/kg/day): 7.7 mm^2
pQCT Total BMC (mature adults, 10 mg/kg/day): 5.6 mg/mm
pQCT Total BMD (mature adults, 10 mg/kg/day): 727.9 mg/cm^3
pQCT Trabecular Area (mature adults, 10 mg/kg/day): 3.5 mm^2
pQCT Trabecular BMC (mature adults, 10 mg/kg/day): 1.7 mg/mm
pQCT Trabecular BMD (mature adults, 10 mg/kg/day): 486.9 mg/cm^3
pQCT Total Area, percent difference from Vehicle Control (mature adults, 50 mg/kg/day): 7.4%
pQCT Total BMC, percent difference from Vehicle Control (mature adults, 50 mg/kg/day): 12.4%
pQCT Total BMD, percent difference from Vehicle Control (mature adults, 50 mg/kg/day): 4.5%
pQCT Trabecular Area, percent difference from Vehicle Control (mature adults, 50 mg/kg/day): 7.5%
pQCT Trabecular BMC, percent difference from Vehicle Control (mature adults, 50 mg/kg/day): 15.1%
pQCT Trabecular BMD, percent difference from Vehicle Control (mature adults, 50 mg/kg/day): 6.8%
pQCT Total Area (mature adults, 50 mg/kg/day): 8.1 mm^2
pQCT Total BMC (mature adults, 50 mg/kg/day): 5.9 mg/mm
pQCT Total BMD (mature adults, 50 mg/kg/day): 734.0 mg/cm^3
pQCT Trabecular Area (mature adults, 50 mg/kg/day): 3.6 mm^2
pQCT Trabecular BMC (mature adults, 50 mg/kg/day): 1.8 mg/mm
pQCT Trabecular BMD (mature adults, 50 mg/kg/day): 486.4 mg/cm^3
pQCT Total Area, percent difference from Vehicle Control (young adults, 10 mg/kg/day): 1.7%
pQCT Total BMC, percent difference from Vehicle Control (young adults, 10 mg/kg/day): 8.5%
pQCT Total BMD, percent difference from Vehicle Control (young adults, 10 mg/kg/day): 6.9%
pQCT Trabecular Area, percent difference from Vehicle Control (young adults, 10 mg/kg/day): 1.6%
pQCT Trabecular BMC, percent difference from Vehicle Control (young adults, 10 mg/kg/day): 10.5%
pQCT Trabecular BMD, percent difference from Vehicle Control (young adults, 10 mg/kg/day): 8.9%
pQCT Total Area (young adults, 10 mg/kg/day): 7.4 mm^2
pQCT Total BMC (young adults, 10 mg/kg/day): 4.9 mg/mm
pQCT Total BMD (young adults, 10 mg/kg/day): 659.9 mg/cm^3
pQCT Trabecular Area (young adults, 10 mg/kg/day): 3.4 mm^2
pQCT Trabecular BMC (young adults, 10 mg/kg/day): 1.6 mg/mm
pQCT Trabecular BMD (young adults, 10 mg/kg/day): 461.6 mg/cm^3
pQCT Total Area, percent difference from Vehicle Control (young adults, 50 mg/kg/day): −5.1%
pQCT Total BMC, percent difference from Vehicle Control (young adults, 50 mg/kg/day): 2.7%
pQCT Total BMD, percent difference from Vehicle Control (young adults, 50 mg/kg/day): 8.6%
pQCT Trabecular Area, percent difference from Vehicle Control (young adults, 50 mg/kg/day): −5.0%
pQCT Trabecular BMC, percent difference from Vehicle Control (young adults, 50 mg/kg/day): 2.7%
pQCT Trabecular BMD, percent difference from Vehicle Control (young adults, 50 mg/kg/day): 8.9%
pQCT Total Area (young adults, 50 mg/kg/day): 6.9 mm^2
pQCT Total BMC (young adults, 50 mg/kg/day): 4.7 mg/mm
pQCT Total BMD (young adults, 50 mg/kg/day): 670.6 mg/cm^3
pQCT Trabecular Area (young adults, 50 mg/kg/day): 3.1 mm^2
pQCT Trabecular BMC (young adults, 50 mg/kg/day): 1.4 mg/mm
pQCT Trabecular BMD (young adults, 50 mg/kg/day): 461.9 mg/cm^3
